Key:
[1] = test system: macrophages from primary human monocytes; experiment: Numbers of live monocyte-derived macrophages in vitro; format: cell-based; conditions: C86 treated TCM or BMS493; three days
Protocol: FIGS. 24A-24E: Raldh1-INH blocks tumor supportive functions of monocytes and macrophages. FIG. 24A: Circulating primary human monocytes were collected from donors and cultured with MCSF (50 ng/mL) to generate macrophages. On day 3 of these cultures, DMSO or RA (100 nmol/L) was added to generate control monocyte-derived macrophages (Control-MoDM) or RA monocyte-derived macrophages (RA-MoDM), respectively. On day 7 of these cultures, macrophages were collected for each well after washing with 1×PBS, mixed with Huh7 cells at approximately 50:50 ratio, and the mix injected into the flanks of NU/J mice. Huh7 tumors cells that were not mixed with any macrophages before flank injection served as an additional control. Tumor volume was measured every 2 days (left graph). 19 days after tumor injection, mice were sacrificed and tumor weight (right graph) was measured. […] Three or more independent experiments were performed with at least three replicates per experimental group. Unpaired t test, two-tailed. […] Tumor growth was monitored daily (left graph). 13 days after tumor cell transplantation, mice were sacrificed and tumor weight measured (right graph). […] Three days later, cells were harvested, counted, and stained with PI for FCS analyses. […] Cell proliferation was measured by counting live cell numbers (y-axis). […] 72 hours later, the cells were washed, counted, and analyzed by FCS. […]

[2] = molecular target: T1, Platelet Activating Factor (PAF) (Homo sapiens, UniProt P25105); experiment: Safetyscreen: PAF; format: binding; conditions: read-out: % Inh. Platelet Activating Factor (PAF)
T1 construct: Eurofins Cereps Panlabs (contract panel)
T1 sequence (P25105 whole entry): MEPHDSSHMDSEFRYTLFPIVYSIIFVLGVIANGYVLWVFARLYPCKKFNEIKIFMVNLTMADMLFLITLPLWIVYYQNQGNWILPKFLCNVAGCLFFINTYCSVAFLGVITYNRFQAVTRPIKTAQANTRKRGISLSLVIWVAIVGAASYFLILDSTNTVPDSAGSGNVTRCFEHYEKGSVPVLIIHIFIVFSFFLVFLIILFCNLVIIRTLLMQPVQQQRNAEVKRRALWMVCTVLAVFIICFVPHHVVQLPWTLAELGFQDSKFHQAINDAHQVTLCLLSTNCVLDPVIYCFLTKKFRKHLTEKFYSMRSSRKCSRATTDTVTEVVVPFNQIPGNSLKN

[3] = Pharmacokinetics IV and PO in CD-1 mice, plasma; format: in vivo; conditions: mouse plasma
Description: The PK studies were done at NIH or a commercial CRO—Pharmacon using their in-house standard protocol. […] For C99, IV and PO, performed at NIH using CD-1 mice; formulation: 20% HPbCD in saline.

[4] = test system: Calcium Channel L-Type, Benzothiazepine; experiment: Safetyscreen: Ca channel L-type, benzothiazepine; format: binding, rat; conditions: 10 μM
[5] = molecular target: T2, Potassium Channel [KATP] (Cricetus cricetus, UniProt Q09427); experiment: Safetyscreen: Potassium Channel KATP; format: binding, hamster; conditions: read-out: % Inh. Potassium Channel [KATP]
T2 construct: Eurofins Cereps Panlabs (contract panel)
T2 sequence (Q09427 whole entry): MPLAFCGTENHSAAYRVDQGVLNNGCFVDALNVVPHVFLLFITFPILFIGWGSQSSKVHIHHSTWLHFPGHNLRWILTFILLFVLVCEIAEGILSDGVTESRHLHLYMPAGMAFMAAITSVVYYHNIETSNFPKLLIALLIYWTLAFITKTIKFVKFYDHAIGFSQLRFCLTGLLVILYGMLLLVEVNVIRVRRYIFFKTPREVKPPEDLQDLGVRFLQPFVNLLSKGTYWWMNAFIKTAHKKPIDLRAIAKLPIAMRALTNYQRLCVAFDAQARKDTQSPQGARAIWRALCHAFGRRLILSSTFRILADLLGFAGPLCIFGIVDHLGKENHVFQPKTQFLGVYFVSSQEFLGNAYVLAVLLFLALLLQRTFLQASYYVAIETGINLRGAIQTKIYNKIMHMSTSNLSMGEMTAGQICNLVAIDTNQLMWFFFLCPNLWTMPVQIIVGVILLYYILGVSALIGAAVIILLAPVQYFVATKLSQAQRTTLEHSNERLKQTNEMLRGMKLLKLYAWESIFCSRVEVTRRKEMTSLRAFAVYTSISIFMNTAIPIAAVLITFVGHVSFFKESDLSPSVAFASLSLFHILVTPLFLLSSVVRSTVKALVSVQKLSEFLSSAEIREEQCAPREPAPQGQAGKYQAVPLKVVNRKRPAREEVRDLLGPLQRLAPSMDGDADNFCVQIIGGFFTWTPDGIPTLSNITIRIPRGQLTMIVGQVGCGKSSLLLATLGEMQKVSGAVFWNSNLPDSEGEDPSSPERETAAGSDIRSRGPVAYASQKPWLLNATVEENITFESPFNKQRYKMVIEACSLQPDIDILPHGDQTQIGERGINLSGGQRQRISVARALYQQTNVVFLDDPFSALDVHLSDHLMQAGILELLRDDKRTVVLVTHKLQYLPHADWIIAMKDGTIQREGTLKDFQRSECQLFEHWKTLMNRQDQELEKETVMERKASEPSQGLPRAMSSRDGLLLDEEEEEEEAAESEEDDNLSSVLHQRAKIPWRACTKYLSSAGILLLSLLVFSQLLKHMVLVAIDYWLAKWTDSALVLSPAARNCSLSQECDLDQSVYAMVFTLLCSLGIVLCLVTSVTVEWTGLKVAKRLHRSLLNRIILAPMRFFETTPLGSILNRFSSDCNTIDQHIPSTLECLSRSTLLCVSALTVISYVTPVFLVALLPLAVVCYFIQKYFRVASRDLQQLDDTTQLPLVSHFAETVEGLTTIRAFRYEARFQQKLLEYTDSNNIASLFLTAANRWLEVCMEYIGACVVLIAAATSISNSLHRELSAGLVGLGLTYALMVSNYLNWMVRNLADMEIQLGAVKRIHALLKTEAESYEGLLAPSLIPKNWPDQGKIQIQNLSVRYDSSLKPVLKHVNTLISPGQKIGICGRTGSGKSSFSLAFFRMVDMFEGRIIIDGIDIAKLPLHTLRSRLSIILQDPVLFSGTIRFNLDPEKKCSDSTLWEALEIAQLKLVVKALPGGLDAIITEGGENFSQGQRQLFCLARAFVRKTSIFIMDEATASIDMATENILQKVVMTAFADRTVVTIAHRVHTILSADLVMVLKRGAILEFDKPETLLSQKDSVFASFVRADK

[6] = test system: SNU398 cells; experiment: RT-qPCR of Raldh1, Raldh2 and Raldh3 transcripts in SNU398 cells; format: cell-based, human; conditions: SNU398, 24 hours
Protocol: FIG. 21A: Transcript levels (RT-qPCR) of Raldh1, Raldh2 and Raldh3 in SNU398 cells treated with different concentrations of C86 or C91 for 24 hours. FIG. 21B: Homology modeling identifies differences in amino acid residues between human and murine RALDH1 at sites predicted to bind RALDH1-INH. FIG. 21C: SNU398 cells were treated with various concentrations of C86 or C91 for 24 hours. Cell viability was measured by flow cytometry (FCM) with 7-AAD staining (Y-axis indicates percentage of 7-AAD negative cells).
Total RNA from mouse tissue samples and in vitro cultured cells was isolated using GenElute Mammalian Total RNA Miniprep Kit (Sigma) following the manufacturer's protocol. Total RNA from human FFPE samples was isolated by using Quick-RNA FFPE Miniprep Kit (Zymo Research) using the manufacturer's protocol. 1000 ng of RNA was used for reverse transcription using High Capacity RNA to cDNA Kit (Life Technologies). The cDNA product was 10× diluted. 2.5 μL of this cDNA was used for qPCR for each sample. Three or more replicates were used for each reaction. […] Expression fold was calculated as 2^−(CT target gene−CT housekeeping gene). Quantitative PCRs were run on a Viia 7 real time PCR system (ThermoFisher). The following target and housekeeping genes were measured using the commercially available TaqMan probes (ThermoFisher): […]

[7] = molecular target: T3, Neuropeptide Y Y1 (Homo sapiens, UniProt P25929); experiment: Safetyscreen: Neuropeptide Y Y1; format: binding; conditions: read-out: % Inh. Neuropeptide Y Y1
T3 construct: Eurofins Cereps Panlabs (contract panel)
T3 sequence (P25929 whole entry): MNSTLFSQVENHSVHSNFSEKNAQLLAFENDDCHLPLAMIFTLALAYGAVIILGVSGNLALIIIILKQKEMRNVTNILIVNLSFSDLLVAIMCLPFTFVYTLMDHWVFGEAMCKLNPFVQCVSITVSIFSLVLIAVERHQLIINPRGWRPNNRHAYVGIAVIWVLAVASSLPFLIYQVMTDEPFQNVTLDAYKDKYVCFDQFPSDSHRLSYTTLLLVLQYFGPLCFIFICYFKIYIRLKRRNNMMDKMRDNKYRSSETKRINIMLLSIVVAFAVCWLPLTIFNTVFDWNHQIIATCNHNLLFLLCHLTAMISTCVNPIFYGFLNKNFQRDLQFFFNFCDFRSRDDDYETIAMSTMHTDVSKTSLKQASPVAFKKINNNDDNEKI

[8] = molecular target: T4, Angiotensin AT1 (Homo sapiens, UniProt P30556); experiment: Safetyscreen: Angiotensin AT1; format: binding; conditions: read-out: % Inh. Angiotensin AT1
T4 construct: purchased Eurofins Cereps Panlabs
T4 sequence (P30556 whole entry): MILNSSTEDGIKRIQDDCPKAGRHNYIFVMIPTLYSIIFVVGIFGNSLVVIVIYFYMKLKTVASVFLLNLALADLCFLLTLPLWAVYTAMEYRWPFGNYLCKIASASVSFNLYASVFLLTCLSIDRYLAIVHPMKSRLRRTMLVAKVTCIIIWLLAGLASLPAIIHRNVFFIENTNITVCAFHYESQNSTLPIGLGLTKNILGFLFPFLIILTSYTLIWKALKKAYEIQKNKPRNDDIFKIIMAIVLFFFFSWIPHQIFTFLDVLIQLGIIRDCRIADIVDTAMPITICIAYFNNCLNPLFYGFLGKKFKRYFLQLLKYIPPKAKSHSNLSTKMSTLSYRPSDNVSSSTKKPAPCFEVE

[9] = molecular target: T5, Muscarinic M3 (Homo sapiens, UniProt P20309); experiment: Safetyscreen: Muscarinic M3; format: binding; conditions: read-out: % Inh. Muscarinic M3
T5 construct: Eurofins Cereps Panlabs (contract panel)
T5 sequence (P20309 whole entry): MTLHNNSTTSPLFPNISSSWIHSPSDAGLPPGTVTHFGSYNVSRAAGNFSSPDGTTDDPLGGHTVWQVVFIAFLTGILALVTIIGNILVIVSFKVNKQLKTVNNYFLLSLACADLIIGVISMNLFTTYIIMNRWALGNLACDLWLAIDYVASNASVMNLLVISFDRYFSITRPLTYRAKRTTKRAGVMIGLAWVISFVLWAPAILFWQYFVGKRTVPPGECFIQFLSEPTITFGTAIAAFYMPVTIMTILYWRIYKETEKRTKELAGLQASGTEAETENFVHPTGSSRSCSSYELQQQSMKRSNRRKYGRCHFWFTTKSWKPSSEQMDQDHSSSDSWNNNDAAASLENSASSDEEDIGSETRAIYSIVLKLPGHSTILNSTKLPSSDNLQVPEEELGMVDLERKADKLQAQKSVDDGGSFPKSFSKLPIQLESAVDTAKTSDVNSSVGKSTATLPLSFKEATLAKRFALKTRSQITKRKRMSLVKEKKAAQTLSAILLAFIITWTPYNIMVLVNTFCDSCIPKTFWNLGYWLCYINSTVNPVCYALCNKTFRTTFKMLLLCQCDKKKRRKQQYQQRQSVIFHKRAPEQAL

[10] = molecular target: T6, Histamine H2 (Homo sapiens, UniProt P25021); experiment: Safetyscreen: Histamine H2; format: binding; conditions: read-out: % Inh. Histamine H2
T6 construct: purchased Eurofins Cereps Panlabs
T6 sequence (P25021 whole entry): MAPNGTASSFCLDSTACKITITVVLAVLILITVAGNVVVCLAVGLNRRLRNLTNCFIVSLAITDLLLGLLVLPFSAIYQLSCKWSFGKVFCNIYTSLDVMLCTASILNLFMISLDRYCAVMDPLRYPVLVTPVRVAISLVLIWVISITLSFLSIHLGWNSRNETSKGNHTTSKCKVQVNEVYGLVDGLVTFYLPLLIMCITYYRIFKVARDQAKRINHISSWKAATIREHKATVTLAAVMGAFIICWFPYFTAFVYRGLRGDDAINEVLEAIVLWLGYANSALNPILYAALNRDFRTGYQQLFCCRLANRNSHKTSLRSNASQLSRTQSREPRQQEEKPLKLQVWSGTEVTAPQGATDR

[11] = intravenous administration, 2 mg/kg

Structure (SMILES): CS(=O)(=O)N1CCN(C(=O)c2cnc3ccc(F)cc3c2N2CCC(C#N)(c3ccccc3)CC2)CC1 [Compound C-86, 1-(6-fluoro-3-(4-(methylsulfonyl)piperazine-1-carbonyl)quinolin-4-yl)-4-phenylpiperidine-4-carbonitrile]
- RA and tumor-CM induced increase in macrophage numbers [1]: reversed
- inhibition at 10 µM [2]: 32%
- AUC0-∞ [3, 11]: 1141 ng·h/mL
- Cmax [3, 11]: 2350 ng/mL
- Vss [3, 11]: 0.7 L/kg
- AUC0-∞ ([3]; oral administration, 10 mg/kg): 2518 ng·h/mL
- Cmax ([3]; oral administration, 10 mg/kg): 1234 ng/mL
- F ([3]; oral administration, 10 mg/kg): 44%
- % Inh. Calcium Channel L-Type, Benzothiazepine [4]: −3%
- inhibition at 10 µM [5]: 28%
- transcription of other RALDH isozymes [6]: did not lead to compensatory increases in transcription
- inhibition at 10 µM [7]: 11%
- inhibition at 10 µM [8]: 19%
- inhibition at 10 µM [9]: 5%
- inhibition at 10 µM [10]: -3%

Reference: patent US20260248799A1, “COMBINATIONS OF RETINALDEHYDE DEHYDROGENASE 1 (RALDH1) INHIBITORS AND IMMUNOSTIMULATORS AND METHODS USING SAME” (The Trustees of the University of Pennsylvania, priority 2023, published 2026)
